Measured values: US20090149512A1, “Use of Ghrelin Antagonists to the Treatment of Certain CNS Diseases” (Novo Nordisk A/S, priority 2004, published 2009)

Test system: diabetic ob/ob mice
Experiment: Assessment of level of wakefulness/activity (locomotor activity, light-beam interruption method)
Format: in vivo
Settings: 20 mg/kg i.p. in saline once daily for 14 days, male, 8 months old
Method: The effect of an administered substance (for example a ghrelin antagonist) on the level of wakefulness or activity in animal subjects (for example, mice) may be assessed by means of an activity test in which the primary measurement parameter is locomotor activity.
Baseline activity is determined for all the animals 1-2 days prior to administration of saline (placebo) or ghrelin antagonist. The animals are subsequently monitored, either acutely or at the end of a more sub-chronic or chronic treatment lasting several days or weeks, for behavioural sensitization. On testing days, the animals are allowed to acclimatize to the behavioural monitors for 30 minutes prior to data accumulation if the monitors in question are different from their “home” cages. Activity is recorded for at least 1 hour on each of the testing days (baseline and post-treatment test). In a suitable arrangement, transparent chambers of Plexiglas™ are equipped with aluminium frames on which are mounted infrared light emitters and detectors. The detectors are interfaced to a personal computer (PC). Behavioural or psychomotor activity is defined as the total number of light-beam interruptions recorded during each testing session. […]

For `CNC(=O)c1noc(C(Cc2ccccc2)N(C)C(=O)[C@@H](Cc2ccc3ccccc3c2)NC(=O)/C=C/C(C)(C)N)n1` (single isomer, unassigned) [D2], the “behaviour of treated animals when observed” value was “awake and interested in their environment” and the “level of wakefulness/activity (locomotor activity) assessed using the light-beam interruption method” value (versus saline control) was “became surprisingly active and awake for the duration of the study”.
